Source: US20260000676A1, “CHROMAN DERIVATIVES AS ESTROGEN RECEPTOR DEGRADERS” (THE REGENTS OF THE UNIVERSITY OF MICHIGAN, priority 2022, published 2026)
Counter-ions that a name gives are not always drawn.

Tests used:
MCF-7 cells = test: cells; details: Homo sapiens, MCF7, 144 h, read-out: MCF7 Proliferation IC50 (nM)
Description: (§1) In vitro assay can be accomplished by MCF-7 and T47D Cell Titer Glo (CTG) assay. MCF-7 and T47D cell (From HDB) are cultured in multi-well white plate with phenol red-free RPMI1640+10% CS-FBS+1% P/S medium (e.g., at 1,000 cells/well). On day 0: Cells are treated with compound at certain concentrations (e.g., 0.5 to 10000 nM) (DMSO and Staurosporine as control). On day 0 and day 6: add Cell Titer Glo reagent and read on EnVision after 30 min incubation for data generation.
(§2) • 1) Cell culture medium: phenol red-free RPMI1640+10% CS-FBS, 1% P/S
(§3) Day-1: MCF-7 and T47D cell (From HDB) were cultured in 384-well white plate with phenol red-free RPMI1640+10% CS-FBS+1% P/S medium (1,000 cells/well) for overnight at 37° C., 5% CO2 incubator.
(§4) Day 0: Cells were treated at desired compound concentrations (0.5 to 10000 nM) (DMSO and Staurosporine as control) for Day 6 at 37° C., 5% CO2 incubator.
(§5) Day 0 and Day 6: add Cell TiterGlo reagent and read on EnVision after 30 min incubation for data generation.

ER [1] = biological target: T1, ER (Homo sapiens (Human), UniProt P03372); test: In-cell western (ICW) ER degradation assay in T47D cells; format: cell-based; details: 16 hrs; for DC50: ER degradation; for Dmax / T47D Dmax %: maximal ER degradation
ER [2] = biological target: T1, ER; test: In-cell western (ICW) ER degradation assay in MCF-7 cells; format: cell-based; details: MCF7, 16 hrs; for DC50: ER degradation; for Dmax: MCF7, maximal ER degradation; for MCF7 Dmax %: maximal ER degradation
CRBN/DDB1 = CRBN/DDB1 (Homo sapiens (Human), UniProt Q96SW2); test: HTRF binding assay to CRBN/DDB1; details: read-out: CRBN HTRF IC50
Description: The binding potency was determined using HTRF assay technology (Perkin Elmer). Compounds were serially diluted in DMSO and 0.2 μL volume was transferred to white 384-well plate.

T47D cells = test: cells; details: Homo sapiens, 144 h, read-out: T47D Proliferation IC50 (nM)
Description: as §1, §2, §3, §4, §5

ERα_LBD(GST) = ERα_LBD(GST) (Homo sapiens (Human), UniProt P03372); test: LanthaScreen TR-FRET ERα competitive binding assay; details: read-out: ERα HTRF IC50
Description: • 1. ERα_LBD(GST) protein: 4 nM • 2. Tb Anti-GST: 2 nM • 3. Fluormone ES2 Green tracer: 3 nM • 4. Incubation time: 60 min • 5. DMSO: 1% • 6. Assay buffer: Adding 1M DTT to Nuclear receptor Buffer K for final 5 mM DTT. • 7. ZPE: 1% DMSO • 8. HPE: 1 μM ARV_471 • 9. LanthaScreen® TR-FRET ERα Competitive Binding Assay (ThermoFisher, #A15887)
• 1) Cherry pick 2 μL 10 mM compound stock to column 1 of a 384 intermediate plate • 2) Add 18 μL DMSO to column 1 to dilute compound to 1 mM. • 3) Transfer 10 μL 1 mM compound to column 1 of a LDV plate. • 2) Add 6 μl DMSO to column 2-10 of the LDV plate. • 3) Compounds undergo 3-fold serial dilution (3 μL+6 μL) in DMSO. • 4) Transfer 120 nL compound solution to assay plate. • ZPE: 120 nL 100% DMSO
Prepare complete nuclear receptor buffer K by adding 1 M DTT to nuclear receptor buffer K for a final concentration of 5 mM DTT. Complete nuclear receptor buffer K must be prepared fresh daily. Prepare 2× protein solution using complete nuclear receptor buffer K containing 8 nM ERα_LBD(GST) and 4 nM Tb Anti-GST. Then, prepare 2× Fluormone ES2 Green tracer (6 nM) using complete nuclear receptor buffer K. Add 6 μL 2× Fluormone ES2 green tracer into a compound plate (PerkinElmer 6008289) by dragonfly with one-tips-addition. Subsequently, add 6 μL 2× protein solution into the plate. Briefly and gently mix the 384-well plate on a plate shaker and incubate at room temperature protected from light for 60 min. The plate is sealed with a cover to minimize evaporation. Read the plate at wavelengths of 520 nm and 495 nm. Calculate the TR-FRET ratio by dividing the emission signal at 520 nm by the emission signal at 495 nm. Generate a binding curve by plotting the emission ratio vs. the log [ligand]. To determine the IC50 value, fit the data using XL-fit for a sigmoidal dose-response.

T1 sequence (P03372 whole entry): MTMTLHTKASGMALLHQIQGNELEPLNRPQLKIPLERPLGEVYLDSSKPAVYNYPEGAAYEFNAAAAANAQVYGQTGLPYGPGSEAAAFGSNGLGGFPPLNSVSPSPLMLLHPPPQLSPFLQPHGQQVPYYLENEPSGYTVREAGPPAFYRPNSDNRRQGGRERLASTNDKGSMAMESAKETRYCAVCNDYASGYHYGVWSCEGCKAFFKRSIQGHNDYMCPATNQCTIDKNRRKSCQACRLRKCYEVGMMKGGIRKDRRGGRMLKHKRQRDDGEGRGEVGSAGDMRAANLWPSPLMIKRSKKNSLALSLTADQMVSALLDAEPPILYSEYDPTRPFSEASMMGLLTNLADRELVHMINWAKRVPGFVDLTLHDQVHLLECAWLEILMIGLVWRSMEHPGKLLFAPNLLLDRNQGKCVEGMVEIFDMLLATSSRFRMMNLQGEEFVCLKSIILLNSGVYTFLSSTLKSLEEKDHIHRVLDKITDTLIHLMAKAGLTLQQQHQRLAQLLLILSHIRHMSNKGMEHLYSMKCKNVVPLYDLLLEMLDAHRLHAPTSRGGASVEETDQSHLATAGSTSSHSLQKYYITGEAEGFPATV
ERα_LBD(GST), sequence (P03372 311-547): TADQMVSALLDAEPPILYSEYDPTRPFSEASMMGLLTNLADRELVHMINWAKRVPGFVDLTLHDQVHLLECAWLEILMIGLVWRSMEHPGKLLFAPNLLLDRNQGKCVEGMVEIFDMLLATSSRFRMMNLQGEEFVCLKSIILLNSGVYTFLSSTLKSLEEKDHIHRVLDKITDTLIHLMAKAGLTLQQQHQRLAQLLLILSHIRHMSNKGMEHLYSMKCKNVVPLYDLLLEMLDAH
CRBN/DDB1, sequence (Q96SW2 whole entry): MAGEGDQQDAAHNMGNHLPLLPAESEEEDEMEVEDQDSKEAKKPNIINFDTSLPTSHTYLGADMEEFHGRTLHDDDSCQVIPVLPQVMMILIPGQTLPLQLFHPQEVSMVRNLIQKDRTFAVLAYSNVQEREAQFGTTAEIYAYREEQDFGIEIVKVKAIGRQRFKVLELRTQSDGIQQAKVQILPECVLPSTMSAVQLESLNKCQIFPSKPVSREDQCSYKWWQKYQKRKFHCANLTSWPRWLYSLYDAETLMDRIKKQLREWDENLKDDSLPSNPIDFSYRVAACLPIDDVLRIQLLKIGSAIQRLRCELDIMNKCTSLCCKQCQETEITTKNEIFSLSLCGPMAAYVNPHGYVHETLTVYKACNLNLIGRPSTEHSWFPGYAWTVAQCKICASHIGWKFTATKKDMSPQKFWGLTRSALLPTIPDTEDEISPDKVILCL
CRBN/DDB1, sequence (Q16531 whole entry partner): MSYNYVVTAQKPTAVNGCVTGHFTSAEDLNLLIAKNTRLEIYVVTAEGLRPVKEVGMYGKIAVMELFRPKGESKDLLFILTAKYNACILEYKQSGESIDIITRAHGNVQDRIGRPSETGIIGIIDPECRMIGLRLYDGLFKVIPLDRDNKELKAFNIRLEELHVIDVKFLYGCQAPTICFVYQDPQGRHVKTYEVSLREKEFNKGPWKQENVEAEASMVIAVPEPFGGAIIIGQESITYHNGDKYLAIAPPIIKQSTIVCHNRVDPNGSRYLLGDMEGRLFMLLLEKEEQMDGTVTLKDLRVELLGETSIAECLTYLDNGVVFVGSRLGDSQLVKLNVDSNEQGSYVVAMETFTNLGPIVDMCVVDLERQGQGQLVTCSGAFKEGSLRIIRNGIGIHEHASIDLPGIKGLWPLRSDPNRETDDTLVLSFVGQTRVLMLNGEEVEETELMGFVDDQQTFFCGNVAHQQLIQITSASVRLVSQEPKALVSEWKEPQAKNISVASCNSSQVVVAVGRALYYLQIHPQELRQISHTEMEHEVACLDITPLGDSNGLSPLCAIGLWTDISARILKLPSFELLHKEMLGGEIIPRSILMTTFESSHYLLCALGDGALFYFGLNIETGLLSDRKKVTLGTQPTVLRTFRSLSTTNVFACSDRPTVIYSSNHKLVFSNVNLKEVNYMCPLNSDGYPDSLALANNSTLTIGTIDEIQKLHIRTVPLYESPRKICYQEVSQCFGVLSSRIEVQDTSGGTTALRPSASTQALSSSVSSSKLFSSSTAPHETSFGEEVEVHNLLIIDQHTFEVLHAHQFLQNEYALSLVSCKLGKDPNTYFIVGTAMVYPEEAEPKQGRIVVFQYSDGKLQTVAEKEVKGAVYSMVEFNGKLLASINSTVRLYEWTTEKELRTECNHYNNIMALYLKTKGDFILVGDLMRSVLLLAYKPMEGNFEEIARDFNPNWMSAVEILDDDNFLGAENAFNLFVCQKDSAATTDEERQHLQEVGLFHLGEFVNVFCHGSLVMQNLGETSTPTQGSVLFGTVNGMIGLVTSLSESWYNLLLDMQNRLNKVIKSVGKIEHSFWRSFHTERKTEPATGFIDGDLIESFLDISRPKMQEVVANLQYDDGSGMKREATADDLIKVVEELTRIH

SMILES	IC50 (MCF-7 cells) [nM]	DC50 (ER [1]) [nM]	Dmax (ER [1]) [%]	DC50 (ER [2]) [nM]	Dmax (ER [2]) [%]	IC50 (CRBN/DDB1) [nM]	IC50 (T47D cells) [nM]	IC50 (ERα_LBD(GST)) [nM]	DC50 (ER [2]; formate) [nM]	MCF7 Dmax % (ER [2]; formate)	T47D Dmax % (ER [1])	MCF7 Dmax % (ER [2])
O=C1CCC(Nc2ccc(N3CCN(CC4CC5(CCN(c6ccc([C@H]7c8ccc(O)cc8OC[C@H]7c7ccccc7)cc6)CC5)C4)CC3)c(F)c2)C(=O)N1 (single isomer, unassigned) [Compound A51]	50 to 500	< 1	25 to 50	< 1	25 to 50	500 to 5000	50 to 500	–	–	–	–	–
O=C1CCC(N2Cc3c(ccc4c3OC[C@H]3CN(CC5CCN(c6ccc([C@H]7c8ccc(O)cc8OC[C@H]7c7ccccc7)cn6)CC5)CCN43)C2=O)C(=O)N1 (single isomer, unassigned) [Compound A64]	–	1 to 10	50 to 75	1 to 10	25 to 50	50 to 500	–	< 5	–	–	–	–
COc1cc(N2CCC(CN3CCN4c5ccc6c(c5OC[C@H]4C3)CN(C3CCC(=O)NC3=O)C6=O)CC2)ccc1[C@@H]1c2ccc(O)cc2OC[C@@H]1c1ccccc1 (single isomer, unassigned) [Compound A77]	–	< 1	50 to 75	< 1	50 to 75	500 to 5000	–	< 5	–	–	–	–
O=C1CCC(N2Cc3cc4c(cc3C2=O)CN(C(=O)C2CCN(C3CCN(c5ccc([C@@H]6c7ccc(O)cc7OC[C@@H]6c6ccccc6)cc5)CC3)CC2)C4)C(=O)N1 (single isomer, unassigned) [Compound A81]	–	< 1	≥ 75	< 1	≥ 75	500 to 5000	–	< 5	–	–	–	–
COc1cc(C(=O)NC2CCC(=O)NC2=O)ncc1N1CCN(CC2CC3(CCN(c4ccc([C@H]5c6ccc(O)cc6OC[C@H]5c5ccccc5)cc4)CC3)C2)CC1 (single isomer, unassigned) [Compound A116]	< 50	< 1	50 to 75	< 1	50 to 75	500 to 5000	50 to 500	–	–	–	–	–
O=C1CC[C@@H](Nc2ccc(C3CCN(CC4CCC5(CC4)CN(c4ccc([C@H]6c7ccc(O)cc7OC[C@H]6c6ccccc6)cc4)C5)CC3)cc2)C(=O)N1 (single isomer, unassigned) [Compound A140]	–	< 1	50 to 75	< 1	50 to 75	500 to 5000	–	< 5	–	–	–	–
O=C1CC[C@@H](NC(=O)c2ccc(N3CCN(CC4COC5(CCN(c6ccc([C@H]7c8ccc(O)cc8OC[C@H]7c7ccccc7)cc6)CC5)C4)CC3)cn2)C(=O)N1 (single isomer, unassigned) [Compound A145]	–	< 1	50 to 75	1 to 10	50 to 75	> 5000	–	< 5	–	–	–	–
O=C1CCC(N2Cc3cc4c(cc3C2=O)CN(C(=O)CN2CCC3(CC2)CN(c2ccc([C@@H]5c6ccc(O)cc6OC[C@@H]5c5ccccc5)cc2)C3)C4)C(=O)N1 (stereo partly drawn) [Compound A49, 3-(6-(2-(2-(4-((3S,4R)-7-hydroxy-3-phenylchroman-4-yl)phenyl)-2,7-diazaspiro[3.5]nonan-7-yl)acetyl)-1-oxo-3,5,6,7-tetrahydropyrrolo[3,4-f]isoindol-2(1H)-yl)piperidine-2,6-dione]	–	1 to 10	50 to 75	1 to 10	50 to 75	50 to 500	–	< 5	–	–	–	–
O=C1CCC(N2Cc3cc4c(cc3C2=O)CN(C(=O)CN2CC3(CCN(c5ccc([C@H]6c7ccc(O)cc7OC[C@H]6c6ccccc6)cc5)CC3)C2)C4)C(=O)N1 (stereo partly drawn) [Compound A56, 3-(6-(2-(7-(4-((3R,4S)-7-hydroxy-3-phenylchroman-4-yl)phenyl)-2,7-diazaspiro[3.5]nonan-2-yl)acetyl)-1-oxo-3,5,6,7-tetrahydropyrrolo[3,4-f]isoindol-2(1H)-yl)piperidine-2,6-dione formate]	< 50	< 1	≥ 75	–	–	50 to 500	< 50	–	1 to 10	B (“B”: >50% and <75%)	–	–
COc1cc(N2CCC(CN3CCN(c4ccc(C(=O)NC5CCC(=O)NC5=O)nc4)CC3)CC2)c(F)cc1[C@H]1c2ccc(O)cc2OC[C@H]1c1ccccc1 (stereo partly drawn) [Compound A110, N-(2,6-dioxopiperidin-3-yl)-5-(4-((1-(2-fluoro-4-((3R,4R)-7-hydroxy-3-phenylchroman-4-yl)-5-methoxyphenyl)piperidin-4-yl)methyl)piperazin-1-yl)picolinamide]	–	< 1	–	< 1	–	> 5000	–	< 5	–	–	B (“B”: >50% and <75%)	B (“B”: >50% and <75%)
COc1cc(N2CCC3(CC2)CC(CN2CCC4(CC2)COc2c4ccc4c2CN(C2CCC(=O)NC2=O)C4=O)C3)c(F)cc1[C@H]1c2ccc(O)cc2OC[C@H]1c1ccccc1 (stereo partly drawn) [Compound A130, 3-(1′-((7-(2-fluoro-4-((3R,4R)-7-hydroxy-3-phenylchroman-4-yl)-5-methoxyphenyl)-7-azaspiro[3.5]nonan-2-yl)methyl)-6-oxo-6,8-dihydro-2H,7H-spiro[furo[2,3-e]isoindole-3,4′-piperidin]-7-yl)piperidine-2,6-dione]	–	< 1	–	< 1	–	50 to 500	–	< 5	–	–	A (“A”; >=75%)	A (“A”; >=75%)
O=C1CC[C@H](NC(=O)c2ccc3c(n2)OC[C@H]2CN(CC4CCC5(CC4)CN(c4ccc([C@@H]6c7ccc(O)cc7OC[C@@H]6c6ccccc6)cc4)C5)CCN32)C(=O)N1 [Compound A142, (R)-N-((S)-2,6-dioxopiperidin-3-yl)-3-((2-(4-((3S,4R)-7-hydroxy-3-phenylchroman-4-yl)phenyl)-2-azaspiro[3.5]nonan-7-yl)methyl)-1,2,3,4,4a,5-hexahydropyrazino[1,2-d]pyrido[2,3-b][1,4]oxazine-8-carboxamide]	–	< 1	50 to 75	1 to 10	50 to 75	500 to 5000	–	< 5	–	–	–	–
O=C1CCC(N2Cc3c(ccc4c3OCC43CCN(CC4COC5(CCN(c6ccc([C@H]7c8ccc(O)cc8OC[C@H]7c7ccccc7)cc6)CC5)C4)CC3)C2=O)C(=O)N1 (stereo partly drawn) [Compound A146, 3-(1′-((8-(4-((3R,4S)-7-hydroxy-3-phenylchroman-4-yl)phenyl)-1-oxa-8-azaspiro[4.5]decan-3-yl)methyl)-6-oxo-6,8-dihydro-2H,7H-spiro[furo[2,3-e]isoindole-3,4′-piperidin]-7-yl)piperidine-2,6-dione]	–	1 to 10	25 to 50	1 to 10	50 to 75	< 50	–	≥ 5	–	–	–	–
O=C1CC[C@H](NC(=O)c2ccc3c(n2)OC[C@H]2CN(C[C@H]4COC5(CCN(c6ccc([C@@H]7c8ccc(O)cc8OC[C@@H]7c7ccccc7)cc6)CC5)C4)CCN32)C(=O)N1 [Compound A147, (R)-N-((S)-2,6-dioxopiperidin-3-yl)-3-(((S)-8-(4-((3S,4R)-7-hydroxy-3-phenylchroman-4-yl)phenyl)-1-oxa-8-azaspiro[4.5]decan-3-yl)methyl)-1,2,3,4,4a,5-hexahydropyrazino[1,2-d]pyrido[2,3-b][1,4]oxazine-8-carboxamide]	–	< 1	50 to 75	< 1	50 to 75	500 to 5000	–	< 5	–	–	–	–
O=C1CC[C@H](N2Cc3cc4c(cc3C2)N2CCN(C[C@@H]3COC5(CCN(c6ccc([C@H]7c8ccc(O)cc8OC[C@H]7c7ccccc7)cc6F)CC5)C3)C[C@H]2CO4)C(=O)N1 [Compound A161, (S)-3-((S)-3-(((R)-8-(2-fluoro-4-((3R,4S)-7-hydroxy-3-phenylchroman-4-yl)phenyl)-1-oxa-8-azaspiro[4.5]decan-3-yl)methyl)-1,2,3,4,4a, 5,8,10-octahydro-9H-pyrazino[1′,2′:4,5][1,4]oxazino[2,3-f]isoindol-9-yl)piperidine-2,6-dione]	< 50	< 1	≥ 75	< 1	50 to 75	50 to 500	–	–	–	–	–	–
